Source: paper PMC10572855, “Phenotypic Test of Benzo[4,5]imidazo[1,2-c]pyrimidinone-Based Nucleoside and Non-Nucleoside Derivatives against DNA and RNA Viruses, Including Coronaviruses” (International Journal of Molecular Sciences, 2023)

Experiments:
[1] = Cell growth inhibition in HEL299 cells, Coulter Counter; assay type: cell-based; details: human, 3 days of cell growth, read-out: Cytotoxicity Cell Growth (CC50)
Description: (§1) Cells were seeded at a rate of 5 × 10^3 cells/well into 96-well plates and allowed to proliferate for 24 h. Then, a medium containing different concentrations of the test compounds, starting at 100 mM, was added. After 3 days of incubation at 37 °C, the cell count was determined with a Beckman Coulter counter or, alternatively, cell viability was determined with the colorimetric formazan-based MTS assay. […] The cytotoxic effects of the compounds were also assessed by evaluating the MCC (minimum cytotoxic concentration that causes a microscopically detectable alteration of cell morphology).

[2] = tested on: HEL299 cells; details: minimum cytotoxic concentration, microscopically detectable alteration of cell morphology
Description: as §1

[3] = tested on: TK+ VZV strain OKA; test: microbe, parasite or virus in culture; assay type: cell-based, Varicella zoster virus; details: Human alphaherpesvirus 3, HEL 299, read-out: Antiviral Activity (EC50) TK+ VZV Strain OKA
[4] = tested on: TK- VZV strain 07-1; test: microbe, parasite or virus in culture; details: Human alphaherpesvirus 3, HEL 299, read-out: Antiviral Activity (EC50) TK− VZV Strain 07-1
[5] = tested on: HCoV 229E; test: Cytopathic effect reduction, HCoV 229E; assay type: cell-based, Human coronavirus 229E; details: Human coronavirus 229E; reduction of virus-induced cytopathic effect by 50%; virus input 100 TCID50; read-out: Antiviral Activity (EC50) HCoV 229E
[6] = tested on: HCoV OC43; test: Cytopathic effect reduction, HCoV OC43; assay type: cell-based, Human coronavirus OC43; details: Betacoronavirus 1, OC43; reduction of virus-induced cytopathic effect by 50%; virus input 100 TCID50; read-out: Antiviral Activity (EC50) HCoV OC43
[7] = tested on: HCoV NL63; test: Cytopathic effect reduction, HCoV NL63; assay type: cell-based, Human coronavirus NL63; details: Human coronavirus NL63; reduction of virus-induced cytopathic effect by 50%; virus input 100 TCID50; read-out: Antiviral Activity (EC50) HCoV NL63
[8] = tested on: RSV (Long); test: Cytopathic effect reduction, RSV (Long); assay type: cell-based, Respiratory syncytial virus; details: human respiratory syncytial virus; reduction of virus-induced cytopathic effect by 50%; virus input 100 TCID50; read-out: Antiviral Activity (EC50) RSV Long
[9] = Cytotoxicity in HEL299 cells, MTS assay; assay type: cell-based, Human; details: human, HEL299 cells, cell growth reduced by 50%
Description: as §1

[10] = Cytotoxicity in Huh7 cells, MTS assay; assay type: cell-based, Human; details: human, Huh7 cells, cell growth reduced by 50%
Description: as §1

[11] = tested on: SARS-CoV-2 UC-1074 (Wuhan); test: Cytopathic effect reduction, SARS-CoV-2 UC-1074 (Wuhan) in Vero cells; assay type: cell-based; details: Severe acute respiratory syndrome coronavirus 2, UC1074, CPE reduced by 50%, 100 TCID50, read-out: Antiviral Activity (EC50) UC-1074 (Wuhan)
[12] = tested on: SARS-CoV-2 NVDBB-2220 (UK); test: Cytopathic effect reduction, SARS-CoV-2 NVDBB-2220 (UK) in Vero cells; assay type: cell-based; details: Severe acute respiratory syndrome coronavirus 2, CPE reduced by 50%, 100 TCID50, read-out: Antiviral Activity (EC50) NVDBB-2220 (UK)
[13] = tested on: SARS-CoV-2 860-J1 (Delta); test: Cytopathic effect reduction, SARS-CoV-2 860-J1 (Delta) in Vero cells; assay type: cell-based; details: Severe acute respiratory syndrome coronavirus 2, CPE reduced by 50%, 100 TCID50, read-out: Antiviral Activity (EC50) 860-J1 (Delta)
[14] = tested on: SARS-CoV-2 B1.1 529 BA.1 (Omicron); test: Cytopathic effect reduction, SARS-CoV-2 B1.1 529 BA.1 (Omicron) in Vero cells; assay type: cell-based; details: Severe acute respiratory syndrome coronavirus 2, CPE reduced by 50%, read-out: Antiviral Activity (EC50) B1.1 529 BA.1 (Omicron)
[15] = target: SARS-CoV-2 RdRp (nsp12, nsp7-nsp8) (Severe acute respiratory syndrome coronavirus 2, UniProt P0DTD1); test: In vitro transcription assay with SARS-CoV-2 RdRp; assay type: biochemical; details: RdRp 1 µM, RNA substrate 25 nM, 100 µM NTPs, 30 °C; read-out: IC50, inhibition of RdRp activity (RNA primer extension)
[16] = target: T1, SARS-CoV-2 N-protein and stem-loop vgRNA fragment condensates (Severe acute respiratory syndrome coronavirus 2, UniProt P0DTC9); test: Cell-free LLPS assay, N-protein:vgRNA condensates; assay type: biochemical
T1 construct: His-tag; made in house

[17] = tested on: SARS-CoV-2 (all strains); test: Cytopathic effect reduction, various SARS-CoV-2 strains in Vero cells; assay type: cell-based; details: Severe acute respiratory syndrome coronavirus 2, read-out: EC50 against all SARS-CoV-2 strains
[18] = in vitro; details: green monkey
[19] = tested on: Vero cells; details: minimum cytotoxic concentration, microscopically detectable alteration of cell morphology
[20] = tested on: TK- VZV strain 07-1; test: in vitro; details: human
[21] = 20 µM compound, 3 µM N-protein, 6 µM RNA

Row | SMILES | CC50 at 3 days [1] [µM] | Cytotoxicity Cell Morphology (MCC) [2] [μM] | EC50 [3] [µM] | EC50 [4] [µM] | EC50 [11] [µM] | EC50 [14] [µM] | effect on LLPS / condensates (summary in words) ([16]; 20 µM compound) | Cytotoxicity Cell Morphology (MCC) [19] [μM] | also measured
1 | Nc1nc2c(ncn2COCCO)c(=O)[nH]1 [Aciclovir, reference compound] | > 100 | >100 |  |  |  |  |  |  | 
2 | O=c1[nH]c(=O)n([C@H]2C[C@H](O)[C@@H](CO)O2)cc1/C=C/Br [Brivudine, reference compound] | > 100 | >100 | 0.1 ± 0.07 | 0.14 ± 0.03 |  |  |  |  | 
3 | COc1ccc(C(OC[C@H]2O[C@@H](n3ccc4nc5cc(O)ccc5n4c3=O)C[C@@H]2O)(c2ccccc2)c2ccc(OC)cc2)cc1 [Compound 3a, 2-((2R,4S,5R)-5-((bis(4-methoxyphenyl)(phenyl)methoxy)methyl)-4-hydroxytetrahydrofuran-2-yl)-7-hydroxybenzo[4,5]imidazo[1,2-c]pyrimidin-1(2H)-one] |  | 20 | > 4 | > 4 | 8.82 ± 0.21 | 10.6 ± 0.7 | robust LLPS inhibitor |  | EC50 [5]: 8.5 ± 0.36 µM; EC50 [6]: < 800 nM; EC50 [7]: > 100 µM; EC50 [8]: 670 ± 230 nM; CC50 at 3 days [9]: > 100 µM; CC50 at 3 days [10]: < 800 nM; EC50 [12]: 8.92 ± 6.38 µM; EC50 [13]: 11.3 ± 3.5 µM; IC50 [15]: 94 ± 3 µM; decrease of the average number of droplets [16, 21]: approximately 60%; decrease of the partitioning coefficient (droplet/solution N-protein concentration ratio) [16, 21]: 60–70%; median droplet diameter [16, 21]: 1.1 µm; EC50 ([16]; dose-dependent effect, 3 µM N-protein, 6 µM RNA, read-out: EC50 of inhibition of condensate formation (LLPS)): ≤ 10 µM; EC50 [17]: ~10 µM; CC50 [18]: > 100 µM
4 | COc1ccc(C(OC[C@H]2O[C@@H](n3ccc4nc5cc(O)ccc5n4c3=O)[C@H](O)[C@@H]2O)(c2ccccc2)c2ccc(OC)cc2)cc1 [Compound 3b, 2-((2R,3R,4S,5R)-5-((bis(4-methoxyphenyl)(phenyl)methoxy)methyl)-3,4-dihydroxytetrahydrofuran-2-yl)-7-hydroxybenzo[4,5]imidazo[1,2-c]pyrimidin-1(2H)-one] |  | 20 | > 4 | > 4 | > 20 | > 20 | minor | 20 | EC50 [5]: 4.1 ± 2 µM; EC50 [6]: < 800 nM; EC50 [7]: > 100 µM; EC50 [8]: 5700 ± 800 nM; CC50 at 3 days [9]: > 20 µM; CC50 at 3 days [10]: < 800 nM; IC50 [15]: 95 ± 4 µM
5 | COc1ccc(C(OC[C@H]2O[C@@H](n3ccc4nc5cc(OC)ccc5n4c3=O)C[C@@H]2O)(c2ccccc2)c2ccc(OC)cc2)cc1 [Compound 7a, 2-((2R,4S,5R)-5-((bis(4-methoxyphenyl)(phenyl)methoxy)methyl)-4-hydroxytetrahydrofuran-2-yl)-7-methoxybenzo[4,5]imidazo[1,2-c]pyrimidin-1(2H)-one] | > 100 | 100 | 8.15 ± 3.59 | 3.28 ± 2.23 | > 20 | > 100 | caused no changes | >100 | selectivity ratio [20]: > 30
6 | COc1ccc(C(OC[C@H]2O[C@@H](n3ccc4nc5cc(OC)ccc5n4c3=O)[C@H](O)[C@@H]2O)(c2ccccc2)c2ccc(OC)cc2)cc1 [Compound 7b, 2-((2R,3R,4S,5R)-5-((bis(4-methoxyphenyl)(phenyl)methoxy)methyl)-3,4-dihydroxytetrahydrofuran-2-yl)-7-methoxybenzo[4,5]imidazo[1,2-c]pyrimidin-1(2H)-one] | 10.3 ± 5.63 | ≥100 | 30.7 ± 4.68 | 7.13 ± 0.94 | > 20 | > 20 |  | >100 | 
7 | COc1ccc2c(c1)nc1ccn([C@H]3C[C@H](O)[C@@H](CO)O3)c(=O)n12 [Compound 8a, 2-((2R,4S,5R)-4-hydroxy-5-(hydroxymethyl)tetrahydrofuran-2-yl)-7-methoxybenzo[4,5]imidazo[1,2-c]pyrimidin-1(2H)-one] |  | 100 | > 20 | > 20 | > 20 | > 20 |  | 100 | 
8 | COc1ccc2c(c1)nc1ccn([C@@H]3O[C@H](CO)[C@@H](O)[C@H]3O)c(=O)n12 [Compound 8b, 2-((2R,3R,4S,5R)-3,4-dihydroxy-5-(hydroxymethyl)tetrahydrofuran-2-yl)-7-methoxybenzo[4,5]imidazo[1,2-c]pyrimidin-1(2H)-one] |  | 100 | > 20 | > 20 | > 20 | > 20 |  | 100 | 
9 | COc1ccc(C(OC[C@H]2O[C@@H](n3ccc(N)nc3=O)C[C@@H]2O)(c2ccccc2)c2ccc(OC)cc2)cc1 [Compound 9a, 4-amino-1-((2R,4S,5R)-5-((bis(4-methoxyphenyl)(phenyl)methoxy)methyl)-4-hydroxytetrahydrofuran-2-yl)pyrimidin-2(1H)-one] |  | 100 | > 20 | > 20 | > 100 | > 100 | reduced droplet density but did not prevent LLPS | >100 | decrease in the partitioning coefficient [16, 21]: approximately 4 fold
10 | COc1ccc(C(OC[C@H]2O[C@@H](n3ccc(N)nc3=O)[C@H](O)[C@@H]2O)(c2ccccc2)c2ccc(OC)cc2)cc1 [Compound 9b, 4-amino-1-((2R,3R,4S,5R)-5-((bis(4-methoxyphenyl)(phenyl)methoxy)methyl)-3,4-dihydroxytetrahydrofuran-2-yl)pyrimidin-2(1H)-one] |  | ≥20 | > 4 | > 20 | > 20 | > 20 |  | 100 | 
11 | CC(C)C(=O)OC[C@H]1O[C@@H](n2ccc(NO)nc2=O)[C@H](O)[C@@H]1O [Molnupiravir] |  |  |  |  | 5.52 ± 0.28 | 5.2 ± 0.23 |  | >100 | EC50 [12]: 3.08 ± 2.12 µM; EC50 [13]: 5.78 ± 0.29 µM; CC50 [18]: > 100 µM
12 | CCC(CC)COC(=O)[C@H](C)N[P@](=O)(OC[C@H]1O[C@@](C#N)(c2ccc3c(N)ncnn23)[C@H](O)[C@@H]1O)Oc1ccccc1 [Remdesivir, reference compound] |  |  |  |  | 1.96 ± 1 | 0.91 ± 0.17 |  | ≥40 | EC50 [5]: 0.03 µM; EC50 [6]: 30 nM; EC50 [7]: 0.03 µM; EC50 [8]: 20 nM; CC50 at 3 days [9]: > 10 µM; CC50 at 3 days [10]: > 10000 nM; EC50 [12]: 0.72 ± 0.15 µM; EC50 [13]: 3.23 ± 0.61 µM; CC50 [18]: ≥ 40 µM
